Results published in patent US20100190755A1, “TETRACYCLINE COMPOUNDS FOR THE TREATMENT OF RHEUMATOID ARTHRITIS AND RELATED METHODS OF TREATMENT” (priority 2008, published 2010).
Converted amounts (≈) assume the structure as drawn.

Experiments:
MCP-1 = test: Paw extract biomarker ELISA, CIA mice: MCP-1; format: in vivo, mouse; conditions: paw extracts from CIA mice
Description: (§1) • 1. Male DBA/1 mice were immunized i.d. with an emulsion of 200 μg bovine type II collagen in Complete Freund's Adjuvant. • 2. On day 21, mice received i.d. boost of 100 μg collagen in Incomplete Freund's Adjuvant • 3. Compounds were administered i.p. daily for 7 days starting from disease onset (day 3-4 after boost). • 4. Foot swelling was measured by an engineering micrometer and disease severity was scored accordingly (1, erythema and mild swelling confined to the tarsal or ankle joint; 2, erythema and mild swelling extending from the ankle to the mid-foot; 3, erythema and moderate swelling extending from the ankle to the metatarsal joints; 4, erythema and severe swelling encompassing the ankle, foot, and digits). • 5. Change (Δ) of paw thickness=sum of paw thickness from 4 paws of a mouse (experimental)−sum of baseline paw thickness from 4 paws of the same mouse. • 6. % inhibition=cumulative A paw thickness (disease group−compound-treated group)/cumulative A paw thickness (disease group)
(§2) • 1. Paws were collected from mice after 5-7 days of dosing and dissected free of skin. • 2. The paws were then homogenized in ice-cold PBS (2 ml/4 paws/mouse) containing 1× protease inhibitor using a Polytron homogenizer. • 3. Debris and particles were removed from the homogenized samples by centrifugation. • 4. Liquid layers were collected for MMP-9, IL-1, IL-6, RANKL, MCP-1, and TNFα analysis using ELISA kits from R & D System.

[1] = test system: collagen-induced arthritis (CIA) in male DBA/1 mice; test: CIA model, Example 3 (cumulative scores vs untreated controls); format: in vivo; conditions: Mus musculus
Summary of the method: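 Immunised intradermally with bovine type II collagen in CFA and boosted at day 21 in IFA. After onset, tetracycline derivatives given daily i.p. or orally for 8 to 15 days. Daily visual inflammation scores (0–4 scale) and micrometer paw thickness summed into cumulative scores.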

MMP-9 = test: Paw extract biomarker ELISA, CIA mice: MMP-9; format: in vivo, mouse; conditions: paw extracts from CIA mice
Description: as §1, §2

RANKL = test: Paw extract biomarker ELISA, CIA mice: RANKL; format: in vivo, mouse; conditions: paw extracts from CIA mice
Description: as §1, §2

IL-1 = test: Paw extract biomarker ELISA, CIA mice: IL-1; format: in vivo, mouse; conditions: paw extracts from CIA mice
Description: as §1, §2

E. coli 25922 = test: Antibacterial activity MIC, Gram- (Table 9); format: cell-based; conditions: Escherichia coli, CAMHB, 35° C., approximately 18 hr
Summary of the method: (§3)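 Broth microdilution in cation-adjusted Mueller Hinton broth, compound dissolved in DMSO and serially diluted from 200 μg/ml down to 0.098 μg/ml. Log-phase inoculum at final ~5×10^5 CFU/ml, incubated ~18 h at 35 °C in ambient air; MIC is the lowest concentration inhibiting growth, read by plate reader or visually.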

[2] = test system: cytokines (IL-1, IL-6, RANKL and MCP-1) and a matrix metalloproteinase (MMP-9); test: Paw extract biomarker ELISA, CIA mice: whole panel (statements in words); format: in vivo, mouse
Description: as §1, §2

S. aureus RN450 = test: Antibacterial activity MIC, Gram+ (Table 9); format: cell-based; conditions: Staphylococcus aureus, CAMHB, 35° C., approximately 18 hr
Summary of the method: as §3

[3] = test system: Protein synthesis (E. coli S30 Extract System); test: Protein synthesis inhibition, in vitro transcription/translation assay (E. coli S30 Extract System for Circular DNA); format: biochemical
[4] = test system: collagen-induced arthritis (CIA) in male DBA/1 mice; test: Murine collagen-induced arthritis (CIA) model, Example 2; format: in vivo, mouse; conditions: for % Inhibition (Change in Paw Thickness) AVG / % Inhibition (Clinical Score) AVG / Change in Paw Thickness (mm) Mean: 25 mg/kg/day i.p.; for % Inhibition (Change in Paw Thickness) AVG / % Inhibition (Clinical Score) AVG: dosed after disease onset; for EC50 in inflammation suppression in CIA mice: i.p. daily; for Effects on reduction of paw swelling and clinical score compared to either minocycline or methotrexate / joint inflammation when administered after disease onset: murine CIA model
Description: Four non-antibacterial analogues of minocycline (J, W, AF and AT) were synthesized and tested in the murine model of the disease, collagen-induced arthritis (CIA) (See supra). Male DBA/1 mice were immunized intradermally with 200 μg of bovine type II collagen and boosted with collagen three weeks later. Minocycline and four non-antibacterial minocycline derivatives were administered i.p. beginning after disease onset. Paw thickness was measured and animals were scored daily.
as §1

[5] = test system: E. coli ATCC25922 (tetracycline sensitive); test: E. coli MIC, broth micro-dilution per CLSI guidelines (Table 3); format: cell-based; conditions: for MIC: Escherichia coli, E. coli ATCC25922, cation-adjusted Mueller Hinton broth
[6] = Pharmacokinetics in rats after i.v. and oral dosing; format: in vivo; conditions: rat; for bioavailability: male, CD/IGS, after oral dosing of 5 mg/kg, read-out: PK Parameters (Rat) % F, fraction of absorption; for bioavailability / half-life: plasma; for half-life: male CD/IGS rats, 1 mg/kg i.v. or 5 mg/kg oral, read-out: PK Parameters (Rat) T1/2 (converted)
Description: Pre-cannulated (jugular vein and carotid artery for i.v. group and carotid artery for oral group) male CD/IGS rats (approximately 250 g) were used. Rats were fasted overnight prior to dosing with access to food restored 2 hours after dosing. Rats were administered with approximately 0.25 mL compound (1 mg/kg dose) for i.v. route (via jugular vein over 20 seconds) or 0.5 mL solution (5 mg/kg dose) orally. Blood (300 μL) was collected in tubes with EDTA anticoagulant at various time points, centrifuged and plasma collected and stored frozen at −20° C. Animals were euthanized by CO2 following the final blood collection. Plasma was extracted (0.1% trifluoroacetic acid in 67% acetonitrile/33% water) and levels of compound quantified by HPLC/MS against a standard curve.

IL-6 = test: Paw extract biomarker ELISA, CIA mice: IL-6; format: in vivo, mouse; conditions: paw extracts from CIA mice
Description: as §1, §2

SMILES | inhibition in vivo at 12 mg/kg [1] [%] | MIC (E. coli 25922) [µg/mL] | inhibition of inflammatory/osteoclastic cytokines (MMP-9, IL-1, IL-6, MCP-1, RANKL) in vivo [2] | MIC (S. aureus RN450) [µg/mL] | IC50 [3] [µM] | % Inhibition (Change in Paw Thickness) AVG [4] [%] | % Inhibition (Clinical Score) AVG [4] [%] | EC50 in inflammation suppression in CIA mice [4] [mg/kg/day i.p.] | Change in Paw Thickness (mm) Mean ([4]; day 1 of dosing) [mm] | Change in Paw Thickness (mm) Mean ([4]; day 2 of dosing) [mm] | Change in Paw Thickness (mm) Mean ([4]; day 3 of dosing) [mm] | Change in Paw Thickness (mm) Mean ([4]; day 4 of dosing) [mm] | Change in Paw Thickness (mm) Mean ([4]; day 5 of dosing) [mm] | Change in Paw Thickness (mm) Mean ([4]; day 6 of dosing) [mm] | Change in Paw Thickness (mm) Mean ([4]; day 7 of dosing) [mm] | Change in Paw Thickness (mm) Mean ([4]; day 8 of dosing) [mm] | Effects on reduction of paw swelling and clinical score compared to either minocycline or methotrexate [4] | joint inflammation when administered after disease onset [4] | anti-bacterial activity compared to minocycline [5] | MIC [5] [µg/mL] | further results
CCc1cc(N(C)C)c2c(c1O)C(=O)C1=C(O)[C@]3(O)C(=O)C(C(N)=O)=C(O)C[C@@H]3C[C@@H]1C2 [Compound AF] | 49 | > 64 | better than minocycline | 1 (≈ 2.26 µM) | > 100 | 62 | 42 | 12 | 0.55 | 0.39 | 0.61 | 0.49 | 0.46 | 0.38 | 0.42 | 0.54 | greater | inhibited joint inflammation | no anti-bacterial activity | > 64 | Percent level of Biomarker Tissue [c] Compared to Untreated Control, MCP-1 AVG (MCP-1): 43%; inhibition in vivo at 6 mg/kg [1]: 28%; inhibition in vivo at 35 mg/kg ([1]; Dose 35 mg/kg): 62%; Percent level of Biomarker Tissue [c] Compared to Untreated Control, MMP-9 AVG (MMP-9): 113%; Percent level of Biomarker Tissue [c] Compared to Untreated Control, RANKL AVG (RANKL): 38%; Percent level of Biomarker Tissue [c] Compared to Untreated Control, IL-1 AVG (IL-1): 55%; bioavailability [6]: 77%; bio-available after oral dosing in rats [6]: bio-available; half-life [6]: 186 min; Percent level of Biomarker Tissue [c] Compared to Untreated Control, IL-6 AVG (IL-6): 35%
CC(C)c1cc(N(C)C)c2c(c1O)C(=O)C1=C(O)[C@]3(O)C(=O)C(C(N)=O)=C(O)[C@@H](N(C)C)[C@@H]3C[C@@H]1C2 [Compound J] | 34 | > 64 | better than minocycline | 2 (≈ 4 µM) | > 100 | 71 | 45 | 14 | 0.47 | 0.39 | 0.33 | 0.48 | 0.36 | 0.37 | 0.50 | 0.65 | greater | inhibited joint inflammation | no anti-bacterial activity | > 64 | Percent level of Biomarker Tissue [c] Compared to Untreated Control, MCP-1 AVG (MCP-1): 60%; inhibition in vivo at 25 mg/kg [1]: 71%; Percent level of Biomarker Tissue [c] Compared to Untreated Control, MMP-9 AVG (MMP-9): 68%; Percent level of Biomarker Tissue [c] Compared to Untreated Control, RANKL AVG (RANKL): 32%; Percent level of Biomarker Tissue [c] Compared to Untreated Control, IL-1 AVG (IL-1): 52%; bioavailability [6]: 65%; bio-available after oral dosing in rats [6]: bio-available; half-life [6]: 150 min; Percent level of Biomarker Tissue [c] Compared to Untreated Control, IL-6 AVG (IL-6): 68%
CN(C)c1cc(-c2cccn2C)c(O)c2c1C[C@H]1C[C@H]3CC(O)=C(C(N)=O)C(=O)[C@@]3(O)C(O)=C1C2=O [Compound AT] | 49 | > 64 | better than minocycline | 1 (≈ 2.03 µM) | > 100 | 81 | 70 | 12 | 0.94 | 0.57 | 0.55 | 0.11 | 0.05 | 0.27 | −0.01 | −0.08 | greater | inhibited joint inflammation | no anti-bacterial activity | > 64 | inhibition in vivo at 6 mg/kg [1]: 45%; inhibition in vivo at 25 mg/kg [1]: 81%; bioavailability [6]: 42%; bio-available after oral dosing in rats [6]: bio-available; half-life [6]: 384 min
